# In BindingDB's records for patent US11753403 (Pic Therapeutics, 2023):
# Biological target: T1, Eukaryotic translation initiation factor 4E [28-217] (Homo sapiens, UniProt P06730)
# T1 construct: 28-217
# Test: Human eIF4E/4G2 Binding Assay
# Description: Test compounds (3.43 mM stock in DMSO) were diluted 2-fold in series in DMSO (10 concentration points). Compound solutions (1.2 μl/well) were added into black 384-well polypropylene microplates (Matrix, Thermal Scientific). Twenty-two microliters per well of Assay Buffer (50 mM NaPi, pH 6.5, 50 mM KCl, 1 mM DTT and 0.5 mg/ml gamma globulin) and eight microliters per well of 82.5 nM purified eIF4E in Assay Buffer were added. The samples were incubated at room temperature (20-23° C.) for 4 hours. Biotin labeled 4G2 peptide (Ac-Lys-Gln-Tyr-Asp-Arg-Glu-Phe-Leu-Leu-Asp-Phe-Gln-Phe-Met-Pro-Lys(Aha-Bio)-NH2, 1.75 μM stock in DMSO) was diluted to 0.14 μM in Assay Buffer (without DTT) and 5 μl/well was added. The samples were incubated at room temperature for 20 min. Five microliters per well of 6.4 nM Eu-streptavidin (Eu-SA, Perkin Elmer) and 80 nM Allophycocyanin (APC)-anti His antibody (Columbia Biosciences) in Assay Buffer (without DTT) were then added and the samples were incubated at room temperature for 20 min.
# T1 sequence (P06730 28-217): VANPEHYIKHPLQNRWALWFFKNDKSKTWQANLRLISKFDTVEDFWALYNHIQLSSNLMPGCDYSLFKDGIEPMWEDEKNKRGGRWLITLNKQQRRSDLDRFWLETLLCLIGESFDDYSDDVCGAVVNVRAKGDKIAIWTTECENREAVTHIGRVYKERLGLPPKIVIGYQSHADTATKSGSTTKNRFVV
row,IC50 [µM],Compound
1,> 10,"O=C(O)CCN(Cc1ccccc1)c1nc(-c2ccc(Cl)c(Cl)c2)c(CN2CCCCC2)s1 [US11753403, Compound I-90]"
2,> 10,"CC(C)Cc1sc(N(CCS(N)(=O)=O)Cc2ccccc2)nc1-c1ccc(Cl)c(Cl)c1 [US11753403, Compound I-98]"
3,< 1,"CC(C)Cc1sc(N(CCC(=O)O)Cc2ccccc2)nc1-c1ccc(-c2ccc(F)cc2)c(Cl)c1 [US11753403, Compound I-104]"
4,> 10,"NC(=O)c1sc(N(CCC(=O)O)Cc2ccccc2)nc1-c1ccc(Cl)c(Cl)c1 [US11753403, Compound I-124]"
5,< 1,"CC(C)Cc1sc(Nc2cccc(C(=O)O)c2)nc1-c1ccc(Cl)c(Cl)c1 [US11753403, Compound I-142]"
6,> 10,"CC(C)Cc1sc(N(CCC(=O)NS(=O)(=O)CCCN)Cc2ccccc2)nc1-c1ccc(Cl)c(Cl)c1 [US11753403, Compound I-186]"
7,> 10,"CC(C)Cc1sc(N(CCC(=O)NCCO)Cc2ccccc2)nc1-c1ccc(Cl)c(Cl)c1 [US11753403, Compound I-194]"
8,> 10,"CC(C)Cc1sc(NCC(Cc2cccc(C(=O)NCCN)c2)C(=O)O)nc1-c1ccc(Cl)c(Cl)c1 (stereo not given) [US11753403, Compound I-204]"
9,< 1,"CC(C)Cc1sc(-c2ccc(NC(=O)c3ccccc3)c(C(=O)O)c2)nc1-c1ccc(Cl)c(Cl)c1 [US11753403, Compound I-237]"
10,< 1,"CC(C)Cc1sc(N2CCN(C(=O)c3cccc(F)c3)C(C(=O)O)C2)nc1-c1ccc(Cl)c(Cl)c1 (stereo not given) [US11753403, Compound I-247]"
